Results on 23 compounds are retold here after patent US8324390B2, “Tetrazole-substituted anthranilamides as pesticides” (Bayer CropScience AG, priority 2008, dated 2012).

In data set [1] the test system is green peach aphid (Myzus persicae). The data set can be described thus: Myzus test (MYZUPE spray treatment). The class given is in vivo. The note with it: Myzus persicae, foliar, read-out: effect in % (aphids killed). An excerpt:
Solvent: 78 parts by weight of acetone
(§1) Solvent: 78.0 parts by weight of acetone

Data set [2] concerns larvae of the mustard beetle (Phaedon cochleariae). The data set can be described thus: Phaedon test (PHAECO spray treatment). The conditions noted are these: Phaedon cochleariae, in Brassica rapa, foliar, read-out: effect in % (beetle larvae killed).
Data set [3] deals with caterpillars of the armyworm (Spodoptera frugiperda). The data set can be described thus: Spodoptera frugiperda test (SPODFR spray treatment). The class given is in vivo. The conditions noted are these: Spodoptera frugiperda, foliar, read-out: effect in % (caterpillars killed).
From the text: as §1

Data set [4] is described as follows: log P determination by HPLC (EEC Directive 79/831 Annex V.A8). The class given is physicochemical. On the procedure: The measurements were carried out using an Agilent 1100 LC system with a 50*4.6 Zorbax Eclipse C18 1.8 μm column (oven temperature 55° C., flow rate 2.0 ml/min).
The following mobile phases were used:
Mobile phase A: acetonitrile+1000 μl of formic acid/l
Mobile phase B: Millipore water+900 μl of formic acid/l

[5] abbreviates: application rate 100 g/ha, Chinese cabbage leaf discs.
The mark [6] stands for this setting: application rate 100 g/ha, maize leaf discs.
Where [7] appears, read: reversed-phase HPLC, Zorbax Eclipse C18 column, by HPLC according to EEC Directive 79/831 Annex V.A8, read-out: log P.

Each structure is given as a SMILES string. Like-named read-outs stand apart in the source and are kept apart here.

On to `Cc1cc(Cl)cc(C(=O)NC2CC2)c1NC(=O)c1cc(Cn2nnnc2C(F)(F)C(F)(F)F)nn1-c1ncccc1Cl` [Example 200], for which the pest or weed control at 100 g/ha in data set [1] (in Brassica rapa), in data set [2] and in data set [3] (in Zea mays) was at least 80% each time. The compound also displayed a chromatographic logP in data set [4] (log P) of 3.32.

As to `Cc1cc(Cl)cc(C(=O)NC(C)C)c1NC(=O)c1cc(Cn2nnnc2C(F)(F)C(F)(F)F)nn1-c1ncccc1Cl` [Example 201], the pest or weed control at 100 g/ha in data set [1] (in Brassica rapa), in data set [2] and in data set [3] (in Zea mays) was at least 80% each time. The compound further registered a chromatographic logP in data set [4] (log P) of 3.59.

Take `Cc1cc(C#N)cc(C(=O)NC(C)C2CC2)c1NC(=O)c1cc(Cn2nnnc2C(F)(F)C(F)(F)F)nn1-c1ncccc1Cl` (centres unmarked) [Example 203]: the pest or weed control at 100 g/ha in data set [1] (in Brassica rapa), in data set [2] and in data set [3] (in Zea mays) was at least 80% each time. This compound also registered a chromatographic logP in data set [4] (log P) of 3.48.

Consider `CCOCCNC(=O)c1cc(C#N)cc(C)c1NC(=O)c1cc(Cn2nnc(C(F)(F)F)n2)nn1-c1ncccc1Cl` [Example 211], for which the pest or weed control at 100 g/ha in data set [1] (in Brassica rapa), in data set [2] and in data set [3] (in Zea mays) was at least 80% in each case. In data set [4] (log P), this compound gave a chromatographic logP of 2.99.

For the compound `Cc1cc(C#N)cc(C(=O)NC2CC2)c1NC(=O)c1cc(Cn2nnc(C(F)(F)C(F)(F)F)n2)nn1-c1ncccc1Cl` [Example 214], the pest or weed control at 100 g/ha in data set [1] (in Brassica rapa), in data set [2] and in data set [3] (in Zea mays) was at least 80% throughout. The same compound yielded a chromatographic logP in data set [4] (log P) of 3.26.

For `Cc1cc(Br)cc(C(=O)NC(C)(C)C)c1NC(=O)c1cc(Cn2nnc(C(F)(F)C(F)(F)F)n2)nn1-c1ncccc1Cl` [Example 219], the pest or weed control at 100 g/ha in data set [1] (in Brassica rapa), in data set [2] and in data set [3] (in Zea mays) was at least 80% throughout. This compound returned a chromatographic logP in data set [4] (log P) of 4.36.

Regarding `Cc1cc(F)cc(C(=O)NC(C)(C)C)c1NC(=O)c1cc(Cn2nnc(C(F)(F)C(F)(F)F)n2)nn1-c1ncccc1Cl` [Example 221], the pest or weed control at 100 g/ha in data set [1] (in Brassica rapa), in data set [2] and in data set [3] (in Zea mays) was at least 80% each time. The compound also yielded a chromatographic logP in data set [4] (log P) of 3.88.

Turning to `Cc1cc(Cl)cc(C(=O)NC(C)(C)C)c1NC(=O)c1cc(Cn2nnc(C(F)(F)F)n2)nn1-c1ncccc1C(F)(F)F` [Example 224], the pest or weed control at 100 g/ha in data set [1] (setting [5]), in data set [2] and in data set [3] (setting [6]) was at least 80% each time. The chromatographic logP in data set [4] (setting [7]) was found to be 4.

With `Cc1cc(C#N)cc(C(N)=O)c1NC(=O)c1cc(Cn2nnc(C(F)(F)F)n2)nn1-c1ncccc1C(F)(F)F` [Example 236], the pest or weed control at 100 g/ha in data set [1] (setting [5]), in data set [2] and in data set [3] (setting [6]) was at least 80% throughout. Further, the chromatographic logP in data set [4] (setting [7]) came to 2.67.

For `Cc1cc(Cl)cc(C(N)=O)c1NC(=O)c1cc(Cn2nnc(C(F)(F)F)n2)nn1-c1ncccc1C(F)(F)F` [Example 238], the pest or weed control at 100 g/ha in data set [1] (setting [5]), in data set [2] and in data set [3] (setting [6]) was at least 80% each time. For the same compound, in data set [4] (setting [7]), the chromatographic logP is 2.97.

With `Cc1cc(I)cc(C(=O)NC(C)(C)C)c1NC(=O)c1cc(Cn2nnc(C(F)(F)F)n2)nn1-c1ncccc1C(F)(F)F` [Example 242], the pest or weed control at 100 g/ha in data set [1] (setting [5]), in data set [2] and in data set [3] (setting [6]) was at least 80% throughout. Moreover, the chromatographic logP in data set [4] (setting [7]) came to 4.25.

In the case of `CNC(=O)c1cc(Cl)cc(C)c1NC(=O)c1cc(Cn2nnc(C(F)F)n2)nn1-c1ncccc1Cl` [Example 255], the pest or weed control at 100 g/ha in data set [1] (in Brassica rapa), in data set [2] and in data set [3] (in Zea mays) was at least 80% throughout. Also, in data set [4] (log P), the chromatographic logP was found to be 2.46.

With `Cc1cc(Cl)cc(C(=O)NCC2CC2)c1NC(=O)c1cc(Cn2nnc(C(F)F)n2)nn1-c1ncccc1Cl` [Example 259], the pest or weed control at 100 g/ha in data set [1] (in Brassica rapa), in data set [2] and in data set [3] (in Zea mays) was at least 80% each time. The same compound registered a chromatographic logP in data set [4] (log P) of 3.04.

In the case of `Cc1cc(C#N)cc(C(=O)NC(C)C2CC2)c1NC(=O)c1cc(Cn2nnc(C(F)F)n2)nn1-c1ncccc1Cl` (centres unmarked) [Example 263], the pest or weed control at 100 g/ha in data set [1] (in Brassica rapa), in data set [2] and in data set [3] (in Zea mays) was at least 80% each time. Besides, in data set [4] (log P), the chromatographic logP is 2.86.

With `Cc1cc(C#N)cc(C(=O)NC2CC2)c1NC(=O)c1cc(Cn2nnc(C(F)F)n2)nn1-c1ncccc1Cl` [Example 264], the pest or weed control at 100 g/ha in data set [1] (in Brassica rapa), in data set [2] and in data set [3] (in Zea mays) was at least 80% throughout. In data set [4] (log P), this compound came in with a chromatographic logP of 2.39.

On to `CCNC(=O)c1cc(C#N)cc(C)c1NC(=O)c1cc(Cn2nnc(C(F)F)n2)nn1-c1ncccc1Cl` [Example 265], for which the pest or weed control at 100 g/ha in data set [1] (in Brassica rapa), in data set [2] and in data set [3] (in Zea mays) was at least 80% throughout. In data set [4] (log P), this compound had a chromatographic logP of 2.36.

For `Cc1cc(C#N)cc(C(=O)NC(C)C)c1NC(=O)c1cc(Cn2nnc(C(F)F)n2)nn1-c1ncccc1Cl` [Example 266], the pest or weed control at 100 g/ha in data set [1] (in Brassica rapa), in data set [2] and in data set [3] (in Zea mays) was at least 80% each time. Further, the chromatographic logP in data set [4] (log P) was 2.58.

Take `Cc1cc(C#N)cc(C(=O)NCC2CC2)c1NC(=O)c1cc(Cn2nnc(C(F)F)n2)nn1-c1ncccc1Cl` [Example 269]: the pest or weed control at 100 g/ha in data set [1] (in Brassica rapa), in data set [2] and in data set [3] (in Zea mays) was at least 80% throughout. Also, the chromatographic logP in data set [4] (log P) was found to be 2.66.

Turning to `Cc1cc(C#N)cc(C(=O)NC2CCC2)c1NC(=O)c1cc(Cn2nnc(C(F)F)n2)nn1-c1ncccc1Cl` [Example 270], the pest or weed control at 100 g/ha in data set [1] (in Brassica rapa), in data set [2] and in data set [3] (in Zea mays) was at least 80% throughout. Also, the chromatographic logP in data set [4] (log P) was found to be 2.7.

Turning to `Cc1cc(C#N)cc(C(=O)NCC#N)c1NC(=O)c1cc(Cn2nnc(C(F)F)n2)nn1-c1ncccc1Cl` [Example 271], the pest or weed control at 100 g/ha in data set [1] (in Brassica rapa), in data set [2] and in data set [3] (in Zea mays) was at least 80% throughout. In data set [4] (log P), this compound came in with a chromatographic logP of 2.19.

For the compound `Cc1cc(I)cc(C(N)=O)c1NC(=O)c1cc(Cn2nnc(C(F)F)n2)nn1-c1ncccc1Cl` [Example 272], the pest or weed control at 100 g/ha in data set [1] (in Brassica rapa), in data set [2] and in data set [3] (in Zea mays) was at least 80% each time. Besides, the chromatographic logP in data set [4] (log P) was found to be 2.53.

Regarding `CNC(=O)c1cc(I)cc(C)c1NC(=O)c1cc(Cn2nnc(C(F)F)n2)nn1-c1ncccc1Cl` [Example 273], the pest or weed control at 100 g/ha in data set [1] (in Brassica rapa), in data set [2] and in data set [3] (in Zea mays) was at least 80% throughout. For the same compound, the chromatographic logP in data set [4] (log P) came to 2.73.

Turning to `Cc1cc(I)cc(C(=O)NC2CCC2)c1NC(=O)c1cc(Cn2nnc(C(F)F)n2)nn1-c1ncccc1Cl` [Example 280], the pest or weed control at 100 g/ha in data set [1] (in Brassica rapa), in data set [2] and in data set [3] (in Zea mays) was at least 80% in each case. The compound also registered a chromatographic logP in data set [4] (log P) of 3.34.
